# Values of other authors, collected in patent US9403744B2, “Process for the production of alkyl ethers by the etherification of isobutene” (SAIPEM S.p.A., priority 2006, dated 2016).
# Details: in water
row,SMILES,Solubility in H2O
1,"CCOC(C)(C)C [ETBE, ethyl ter-butyl ether]",1.2 w %
2,"CCC(C)(C)OC [TAME, methyl ter-amyl ether]",1.1 w %
